Targets include Collagenase 3 (Homo sapiens, UniProt P45452); Carbonic anhydrase 1 (Homo sapiens, UniProt P00915); Carbonic anhydrase 2 (Homo sapiens, UniProt P00918).
The next assay addresses T1, Interstitial collagenase (Homo sapiens, UniProt P03956).
T1 sequence (P03956 whole entry): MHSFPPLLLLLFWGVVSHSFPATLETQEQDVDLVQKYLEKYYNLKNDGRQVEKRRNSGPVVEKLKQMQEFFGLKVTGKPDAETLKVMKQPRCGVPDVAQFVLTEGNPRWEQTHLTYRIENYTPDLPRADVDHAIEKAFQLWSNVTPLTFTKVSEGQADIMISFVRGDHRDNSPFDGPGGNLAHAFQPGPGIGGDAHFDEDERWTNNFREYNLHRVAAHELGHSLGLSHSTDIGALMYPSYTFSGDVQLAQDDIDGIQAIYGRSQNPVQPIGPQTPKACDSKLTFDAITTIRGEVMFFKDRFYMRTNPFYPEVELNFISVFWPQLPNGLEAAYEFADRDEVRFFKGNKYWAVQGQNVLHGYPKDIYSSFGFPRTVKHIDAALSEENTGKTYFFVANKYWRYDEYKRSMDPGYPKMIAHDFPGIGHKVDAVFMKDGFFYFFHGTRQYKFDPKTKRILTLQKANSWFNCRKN
Briefly: Inhibition of MMP1.

Assay [1] deals with 72 kDa type IV collagenase (Homo sapiens, UniProt P08253). In words: Inhibition of human recombinant MMP2 transfected in mouse melanoma cells. In kind it is cell-based.
Sequence of 72 kDa type IV collagenase (P08253 whole entry): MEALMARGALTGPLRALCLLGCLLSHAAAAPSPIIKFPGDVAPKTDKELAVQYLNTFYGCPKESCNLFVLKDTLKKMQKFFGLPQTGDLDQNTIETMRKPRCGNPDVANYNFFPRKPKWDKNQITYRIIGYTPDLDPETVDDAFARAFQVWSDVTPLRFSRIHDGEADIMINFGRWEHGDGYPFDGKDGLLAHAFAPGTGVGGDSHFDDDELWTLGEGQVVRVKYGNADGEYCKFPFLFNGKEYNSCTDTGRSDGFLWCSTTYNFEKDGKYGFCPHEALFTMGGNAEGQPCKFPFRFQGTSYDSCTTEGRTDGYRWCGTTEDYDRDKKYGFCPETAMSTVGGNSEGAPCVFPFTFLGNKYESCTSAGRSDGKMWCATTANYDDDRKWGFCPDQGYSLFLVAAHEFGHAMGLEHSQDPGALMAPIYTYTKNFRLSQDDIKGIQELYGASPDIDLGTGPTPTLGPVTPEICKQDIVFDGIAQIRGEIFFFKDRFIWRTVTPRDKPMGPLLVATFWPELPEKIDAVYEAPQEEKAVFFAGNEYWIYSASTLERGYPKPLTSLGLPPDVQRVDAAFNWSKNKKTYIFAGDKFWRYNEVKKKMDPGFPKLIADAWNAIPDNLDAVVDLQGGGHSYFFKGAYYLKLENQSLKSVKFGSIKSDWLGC
The target in a further assay is Neutrophil collagenase (Homo sapiens, UniProt P22894). In words: Inhibition of MMP8.
Sequence of Neutrophil collagenase (P22894 whole entry): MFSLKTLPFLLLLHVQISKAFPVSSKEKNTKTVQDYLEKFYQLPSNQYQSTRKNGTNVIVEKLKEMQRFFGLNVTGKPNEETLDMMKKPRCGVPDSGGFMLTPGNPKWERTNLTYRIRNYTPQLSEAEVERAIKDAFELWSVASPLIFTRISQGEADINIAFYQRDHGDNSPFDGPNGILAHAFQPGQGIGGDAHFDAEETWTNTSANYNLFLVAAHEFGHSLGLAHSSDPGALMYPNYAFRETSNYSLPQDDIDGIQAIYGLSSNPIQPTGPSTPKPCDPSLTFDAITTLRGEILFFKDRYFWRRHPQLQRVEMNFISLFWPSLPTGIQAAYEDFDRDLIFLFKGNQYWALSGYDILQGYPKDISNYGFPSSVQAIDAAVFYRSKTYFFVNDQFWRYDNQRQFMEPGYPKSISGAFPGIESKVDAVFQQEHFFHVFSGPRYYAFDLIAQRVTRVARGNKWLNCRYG
Assay [2] has as its target Matrix metalloproteinase-9 (Homo sapiens, UniProt P14780). In words: Inhibition of MMP9.
Assay [3] addresses Matrix metalloproteinase-14 (Homo sapiens, UniProt P50281). In words: Inhibition of MMP14.
For assay [4], the target named is Matrix metalloproteinase-16 (Homo sapiens, UniProt P51512). In words: Inhibition of MMP16.
Sequence of Matrix metalloproteinase-16 (P51512 whole entry, the tested form may be a part): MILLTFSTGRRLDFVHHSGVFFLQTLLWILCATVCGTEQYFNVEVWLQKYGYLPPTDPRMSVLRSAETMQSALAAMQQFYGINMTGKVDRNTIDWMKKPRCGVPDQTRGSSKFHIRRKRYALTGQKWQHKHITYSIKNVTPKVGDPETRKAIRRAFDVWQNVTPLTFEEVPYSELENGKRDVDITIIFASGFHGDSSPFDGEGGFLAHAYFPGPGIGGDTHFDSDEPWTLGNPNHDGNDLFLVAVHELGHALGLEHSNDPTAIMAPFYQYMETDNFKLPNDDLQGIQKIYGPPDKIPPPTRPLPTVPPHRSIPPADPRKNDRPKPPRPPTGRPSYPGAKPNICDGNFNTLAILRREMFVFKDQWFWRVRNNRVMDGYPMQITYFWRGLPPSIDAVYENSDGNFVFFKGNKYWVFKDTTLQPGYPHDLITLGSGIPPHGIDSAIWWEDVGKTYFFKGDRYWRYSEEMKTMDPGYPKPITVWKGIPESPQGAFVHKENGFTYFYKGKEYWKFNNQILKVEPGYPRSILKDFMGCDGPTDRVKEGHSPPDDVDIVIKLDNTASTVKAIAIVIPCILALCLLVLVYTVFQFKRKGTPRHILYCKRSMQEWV
In assay [5] the target is Disintegrin and metalloproteinase domain-containing protein 17 (Homo sapiens, UniProt P78536). Briefly: Inhibition of TACE.
Sequence of Disintegrin and metalloproteinase domain-containing protein 17 (P78536 whole entry, the tested form may be a part): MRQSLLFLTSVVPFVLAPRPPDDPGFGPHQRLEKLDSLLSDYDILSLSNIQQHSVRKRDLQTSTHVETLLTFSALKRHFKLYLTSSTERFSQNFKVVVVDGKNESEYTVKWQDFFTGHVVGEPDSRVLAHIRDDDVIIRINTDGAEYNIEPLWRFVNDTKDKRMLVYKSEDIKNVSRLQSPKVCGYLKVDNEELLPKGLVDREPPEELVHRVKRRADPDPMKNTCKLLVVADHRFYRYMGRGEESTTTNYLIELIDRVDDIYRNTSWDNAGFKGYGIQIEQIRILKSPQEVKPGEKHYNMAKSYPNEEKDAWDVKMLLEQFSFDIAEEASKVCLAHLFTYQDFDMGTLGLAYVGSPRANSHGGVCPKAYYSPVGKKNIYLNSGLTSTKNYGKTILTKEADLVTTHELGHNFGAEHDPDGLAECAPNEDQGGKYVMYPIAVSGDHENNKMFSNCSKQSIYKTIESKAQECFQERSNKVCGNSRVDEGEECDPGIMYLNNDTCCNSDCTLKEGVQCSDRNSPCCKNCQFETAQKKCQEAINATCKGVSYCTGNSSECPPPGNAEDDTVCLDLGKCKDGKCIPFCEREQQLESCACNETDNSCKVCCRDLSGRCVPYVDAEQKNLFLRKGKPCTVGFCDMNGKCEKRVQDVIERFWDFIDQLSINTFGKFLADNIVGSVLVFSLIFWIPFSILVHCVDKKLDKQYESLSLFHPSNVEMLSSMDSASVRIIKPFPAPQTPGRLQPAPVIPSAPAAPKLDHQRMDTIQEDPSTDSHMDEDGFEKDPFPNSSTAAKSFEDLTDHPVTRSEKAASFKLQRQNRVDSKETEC
Assay [6] is filed under the species Homo sapiens. Briefly: Selectivity for human recombinant CA9 to human recombinant CA1.
The species entered for assay [7] is Homo sapiens. Briefly: Selectivity for human recombinant CA9 to human recombinant CA2.
Another assay deals with Carbonic anhydrase 9 (Homo sapiens, UniProt Q16790). Briefly: Inhibition of human recombinant CA9 catalytic domain by stopped-flow CO2 hydrase assay.

A value given as a limit tells only on which side of the number the result lay.

Sequence of Matrix metalloproteinase-9 (P14780 whole entry): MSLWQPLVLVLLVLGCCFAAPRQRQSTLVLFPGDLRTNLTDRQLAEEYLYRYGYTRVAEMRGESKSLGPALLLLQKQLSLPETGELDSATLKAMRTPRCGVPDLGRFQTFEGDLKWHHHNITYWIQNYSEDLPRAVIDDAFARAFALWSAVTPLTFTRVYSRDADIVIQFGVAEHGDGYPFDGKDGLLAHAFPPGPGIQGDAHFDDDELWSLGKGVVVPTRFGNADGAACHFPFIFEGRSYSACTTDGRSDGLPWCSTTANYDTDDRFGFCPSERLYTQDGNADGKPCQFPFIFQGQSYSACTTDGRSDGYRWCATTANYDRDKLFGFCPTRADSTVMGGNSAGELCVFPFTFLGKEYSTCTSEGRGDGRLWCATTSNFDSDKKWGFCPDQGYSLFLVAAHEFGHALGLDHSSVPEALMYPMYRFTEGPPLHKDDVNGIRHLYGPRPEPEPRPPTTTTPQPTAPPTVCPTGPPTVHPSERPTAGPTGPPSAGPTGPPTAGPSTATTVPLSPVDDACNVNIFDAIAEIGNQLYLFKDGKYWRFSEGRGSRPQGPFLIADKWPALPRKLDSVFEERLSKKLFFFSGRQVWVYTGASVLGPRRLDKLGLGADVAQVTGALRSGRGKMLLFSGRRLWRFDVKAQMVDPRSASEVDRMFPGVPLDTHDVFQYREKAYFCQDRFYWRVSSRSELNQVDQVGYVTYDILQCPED
Sequence of Carbonic anhydrase 1 (P00915 whole entry): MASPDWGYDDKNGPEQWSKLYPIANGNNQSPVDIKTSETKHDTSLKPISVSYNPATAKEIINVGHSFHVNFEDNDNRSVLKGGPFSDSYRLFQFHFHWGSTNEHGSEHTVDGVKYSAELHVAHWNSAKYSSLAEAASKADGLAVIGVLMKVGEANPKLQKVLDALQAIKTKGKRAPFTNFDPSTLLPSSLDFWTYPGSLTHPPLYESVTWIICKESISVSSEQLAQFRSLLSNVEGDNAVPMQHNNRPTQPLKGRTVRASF
Description for Carbonic anhydrase 1: Inhibition of human recombinant CA1 by stopped-flow CO2 hydrase assay
Description for Carbonic anhydrase 2: Inhibition of human recombinant CA2 by stopped-flow CO2 hydrase assay

Turning to `CC(C)[C@H](C(=O)NO)N(CC(=O)O)S(=O)(=O)c1ccc(Oc2ccccc2)cc1`, the IC50 against Interstitial collagenase was 0.059 µM; in assay [1], 0.0005 µM; against Neutrophil collagenase, 0.0004 µM; in [2], 0.00077 µM; in assay [3], 0.0039 µM; in assay [4], 0.00156 µM. For the same compound, the IC50 in assay [5] was determined as 2.29 µM; against Collagenase 3, 0.00033 µM. For the same compound, the values for the Selectivity ratio in the assay filed under Homo sapiens [6] and in the assay listed under Homo sapiens [7] were 7.9 and 1.3, respectively.
As to `NS(=O)(=O)c1ccc(CCNC(=O)CN(CC(=O)NO)Cc2ccccc2)cc1`, the IC50 in assay [1] was above 100 µM; in assay [2], above 300 µM; in [3], above 100 µM. In addition, the Ki on Carbonic anhydrase 1 came to 2.34 µM.
As for `CC(C)[C@H](C(=O)NO)N(CC(=O)O)S(=O)(=O)c1ccc(-c2ccccc2)cc1`, the IC50 against Interstitial collagenase was found to be 0.236 µM; in [1] it was 0.0247 µM; against Neutrophil collagenase it was 0.0043 µM; in assay [2], 0.0277 µM; in assay [3], 0.306 µM. The Selectivity ratio in the assay filed under Homo sapiens [6] is 7.9; in the assay filed under Homo sapiens [7], 1.3.
On to `NS(=O)(=O)c1ccc(CCNC(=O)CN(CC(=O)O)S(=O)(=O)c2ccc(-c3ccccc3)cc2)cc1`, for which the IC50 in assay [1] stood at 5.12 µM; at Neutrophil collagenase it was 8.2 µM; in assay [3], 33.9 µM. The Ki on Carbonic anhydrase 9 is 0.0038 µM; at Carbonic anhydrase 1, 0.116 µM.
Take `COc1ccc(S(=O)(=O)N(CC(=O)O)CC(=O)NO)cc1`: the IC50 was determined as 6.77 µM against Interstitial collagenase; 0.193 µM in assay [1]; 1.01 µM against Neutrophil collagenase; 0.322 µM in [2]; 1.69 µM in [3]; 0.996 µM in [4].
Take `NS(=O)(=O)c1ccc(CCNC(=O)CN(CC(=O)NO)S(=O)(=O)c2ccc(Oc3ccccc3)cc2)cc1`: the IC50 amounted to 0.143 µM against Interstitial collagenase; 0.00157 µM in assay [1]; 0.00074 µM at Neutrophil collagenase; 0.00051 µM in assay [2]; 0.0021 µM in assay [3]; 0.001 µM in assay [4].
As for `O=C(O)CN(CC(=O)NO)S(=O)(=O)c1ccc(Oc2ccccc2)cc1`, the IC50 at Interstitial collagenase is 1.53 µM; in assay [1], 0.0012 µM; at Neutrophil collagenase it was 0.0037 µM; in [2], 0.0032 µM; in assay [3] it was 0.014 µM; in assay [4], 0.0114 µM. The compound also registered an IC50 at Collagenase 3 of 0.0016 µM. Further, the Selectivity ratio is 7.9 in the assay filed under Homo sapiens [6] and 1.3 in the assay listed under Homo sapiens [7].
As for `NS(=O)(=O)c1ccc(CCNC(=O)CN(CC(=O)O)S(=O)(=O)c2ccc(Oc3ccccc3)cc2)cc1`, the figures for the IC50 (in [1]; against Neutrophil collagenase; in [3]) were 2.23 µM, 4.36 µM and 8.95 µM, respectively. Further, the Ki is 0.0064 µM on Carbonic anhydrase 9 and 3.43 µM at Carbonic anhydrase 1.
Consider `COc1ccc(S(=O)(=O)N(CC(=O)O)[C@@H](C(=O)NO)C(C)C)cc1`, for which the IC50 turned out to be 0.235 µM at Interstitial collagenase; 0.145 µM in [1]; 0.0292 µM against Neutrophil collagenase; 0.062 µM in assay [2]; 0.353 µM in [3]. Further, the Selectivity ratio in the assay filed under Homo sapiens [6] came out at 7.9; in the assay listed under Homo sapiens [7] it was 1.3.
With `COc1ccc(S(=O)(=O)N(CC(=O)NO)CC(=O)NCCc2ccc(S(N)(=O)=O)cc2)cc1`, the IC50 against Interstitial collagenase worked out at 0.532 µM; in assay [1], 0.0253 µM; against Neutrophil collagenase, 0.059 µM; in assay [2], 0.0537 µM; in [3] it was 0.0898 µM; in [4] it was 0.044 µM. In addition, the Ki at Carbonic anhydrase 9 was 0.013 µM; at Carbonic anhydrase 1, 1.77 µM.
As to `COc1ccc(S(=O)(=O)N(Cc2cccnc2)[C@@H](C(=O)NO)C(C)C)cc1` [CGS-27023A], the IC50 in [4] amounted to 0.0068 µM.
Take `NS(=O)(=O)c1ccc(CCNC(=O)CN(CC(=O)NO)S(=O)(=O)c2ccc(-c3ccccc3)cc2)cc1`: the IC50 against Interstitial collagenase was 0.542 µM; in assay [1] it was 0.0162 µM; on Neutrophil collagenase it was 0.035 µM; in [2] it was 0.066 µM; in [3], 0.26 µM; in [4], 0.186 µM.
As to `CC(C)[C@H](C(=O)NO)N(CC(=O)NCCc1ccc(S(N)(=O)=O)cc1)S(=O)(=O)c1ccc(Oc2ccccc2)cc1`, the IC50 on Interstitial collagenase amounted to 0.0078 µM; in assay [1], 0.00035 µM; at Neutrophil collagenase, 0.00029 µM; in [2], 0.00021 µM; in assay [3], 0.00032 µM; in assay [4], 0.00031 µM. Besides, the IC50 in assay [5] came out at 0.055 µM; on Collagenase 3 it was 0.00012 µM. Moreover, the Ki on Carbonic anhydrase 9 came out at 0.0033 µM; on Carbonic anhydrase 1 it was 0.73 µM; on Carbonic anhydrase 2, 0.0042 µM. Further, in the assay listed under Homo sapiens [7], the Selectivity ratio came out at 1.3.

For orientation: IC50 means the concentration that inhibits the measured activity by half. Usually Ki stands for a measure of affinity in units of concentration, obtained from inhibition or displacement.
